Like-named read-outs stand apart in the source and are kept apart here.
Columns and labels:
[1] = PK and biodistribution in BALB/c mice; assay type: in vivo; details: for half-life: 50 mg/kg
Protocol: Figure 8 PK and biodistribution of BA103 in BALB/c mice at the single dose of 50 mg/kg i.p. (A) Plasmatic distribution and PK parameters. Concentration levels ± SD of BA103 in (B) kidneys, (C) liver, and (D) brain. TEXT PRINTED IN THE PICTURE: (A) no label printed: t1/2 (min): 299.6; Cmax (μg/ml): 18.2; AUC 0-t (μg/ml*min): 1817.6; AUC 0-inf_obs (μg/ml*min): 1850.7; Vz/F_obs ((mg/kg)/(μg/ml)): 11.7; Cl/F_obs ((mg/kg)/(μg/ml)/min): 0.1 DOUBTS OF THE COPYIST ABOUT THIS PICTURE: Panel A table: the picture prints no substance label / Panel A table, Vz/F_obs and Cl/F_obs: the underscore may be hidden by the table line (could be 'Vz/F obs', 'Cl/F obs')
Thus, preliminary PK and biodistribution studies were performed on two groups of BALB/c mice (CTRL and BA103-treated) at the single intraperitoneal (i.p.) dose of 50 mg/kg. BA103 was slowly eliminated from plasma, with a half time (t1/2) of about 5 h. […] Even if the PK analysis was conducted in healthy mice, with an intact BBB, the data are of great importance, since the majority of drugs are unable to reach the tumor environment due to their low permeability.

[2] = test system: HN6; assay: MTS cytotoxicity assay, HN6 cells; assay type: cell-based; details: HN6, 72 h
Protocol: For CellTiter 96® Aqueous One Solution Cell Proliferation Assay (MTS) (Promega, Madison, WI, USA), cells were seeded at 5 × 10^3 per well in 96-well plates in quadruplicate together a control with no cells to evaluate the background. After 24 h, the culture medium was removed, and fresh medium containing increasing concentrations of chemical compounds was added to cells. The fixed final concentrations were 0.1 μM, 1 μM, 10 μM, and 100 μM. DMSO was the vehicle used for dilution of the compounds, and its final concentration on cells was less than 0.2%. Medium-only containing wells were included as controls. […] After 3 h at 37 °C in a humidified, 5% CO2 atmosphere, the absorbance at 492 nm was recorded using an EZREAD400 (Biochrom, Cambridge, United Kingdom) plate reader. The average 490 nm absorbance from the “no cell” control wells was subtracted from all other values to yield background-corrected absorbance. Dose–response curves and CC50 values have been calculated by plotting the absorbance data as a function of inhibitor concentrations and fitting the data by least-squares nonlinear regression, according to the method of Marquardt–Levenberg, with the computer program GraphPad Prism 6.0.
Cells were incubated with a scalar concentration of DDX3X inhibitors, and after 72 h of treatment, cell viability was assessed by cytotoxicity assay. […]

[3] = test system: U87 and U251 cells; assay: Cell cycle analysis in GBM cells; assay type: cell-based; details: after 72 h
Protocol: […] At the end point, at least 5 × 10^6 cells were harvested, washed with phosphate buffer saline (PBS), and fixed overnight with 70% ethanol. Then, ethanol was removed by centrifugation, and the cells were resuspended in PBS and stained with 50 μg/mL propidium iodide (PI) at 4 °C for 30 min in the dark. Stained cells were analyzed by a Tali image-based cytometer (Life Technologies, Carlsbad, CA, USA) counting 20 fields per sample, and exported fcs raw data were elaborated by Flowing software (v. 2.5.0, by Perttu Terho, University of Turku, Finland).
To better characterize the antiproliferative effect of BA103, we performed further biological evaluation using GBM cell lines. The expression of DDX3X was evaluated in U87 and U251 cell lines by Western blot analysis in comparison with HepG2 cells, resulting in basally detectable mainly in U87 cells (Figure 6A). […] Cell cycle experiments were performed in normal conditions (CTR) and in the presence of BA103 at 1 µM and 10 µM concentrations for 48 h and 72 h. […] Thus, also according to the importance of β-catenin signaling in GBM, we analyzed whether the expression of β-catenin in U87 and U251 cells could be associated with DDX3X activity. GBM cells were treated with BA103 for 48 h, and then, β-catenin expression was evaluated by Western blot analysis and immunofluorescence analysis (Figure 7A,B, respectively). […]

[4] = BALB/c, mouse, ip, plasma, single dose 50 mg/kg i.p.

Q: With `CCCCc1cn(-c2ccc(NC(=O)Nc3ccccc3C(F)(F)F)cc2)nn1` [BA103, 1-(4-(4-Butyl-1H-1,2,3-triazol-1-yl)phenyl)-3-(2-(trifluoromethyl)phenyl)urea] as the compound, how does the AUC(0-t) [1, 4] read?
A: The AUC(0-t) was 30.3 µg·h/mL.

Q: What about the Cmax [1, 4] of the same compound?
A: Its Cmax is 18.2 µg/mL.

Q: And the AUC(0-inf) ([1]; BALB/c, mouse, ip, plasma, single dose 50 mg/kg i.p., read-out: AUC 0-inf_obs (converted))?
A: The AUC(0-inf) was 30.8 µg·h/mL.

Q: And the half-life ([1]; BALB/c, mouse, plasma, ip, plasma, single dose 50 mg/kg i.p., read-out: t1/2)?
A: Its half-life is 4.99 h.

Q: And the half-life ([1]; BALB/c, mouse, plasma, ip, single dose 50 mg/kg i.p., read-out: half time (t1/2) of elimination from plasma (converted))?
A: The half-life was about 5 h.

Q: What about the CL/F ([1]; BALB/c, mouse, plasma, ip, single dose 50 mg/kg i.p.) of the same compound?
A: The CL/F was 6 L/h/kg.

Q: And the Vd/F ([1]; BALB/c, mouse, plasma, ip, single dose 50 mg/kg i.p., read-out: Vz/F_obs)?
A: Its Vd/F is 11.7 L/kg.

Q: And the “brain distribution / blood–brain barrier crossing” value ([1]; healthy mice, 50 mg/kg i.p.)?
A: The value was “ability to cross the blood–brain barrier”.

Q: What about the “CC50” value [2] of the same compound?
A: The value was “low micromolar range”.

Q: And the “cell cycle distribution” value [3]?
A: The value was “significant accumulation of cells in the G0/G1 phase”.

Reference: paper PMC8582824, “Targeting DDX3X Helicase Activity with BA103 Shows Promising Therapeutic Effects in Preclinical Glioblastoma Models” (Cancers, 2021)
